Tests used:
Felis catus [1] = species on record: Felis catus; assay: Effective dose required to produce an increase in dP/dt5 by 1500 mmHg/s in cats; format: functional
Rattus norvegicus [2] = species on record: Rattus norvegicus; assay: Effective dose required to produce an increase in dP/dt5 by 1500 mmHg/s in rats; format: functional
Rattus norvegicus [3] = assay: Maximum increase in dP/dt when administered intravenously in rats at 3 mg/kg dose.; format: functional; settings: route intravenous
Felis catus [4] = assay: Maximum increase in dP/dt when administered intravenously in cats at 0.1 mg/kg dose.; format: functional; settings: route intravenous
Canis familiaris [5] = assay: Time after which maximum increase in contractility was observed when administered orally in conscious dogs at 1 mg/kg; format: functional, Canis lupus familiaris; settings: route oral
Canis familiaris [6] = assay: Maximum increase in dP/dt when administered intravenously in dogs at 0.03 mg/kg dose.; format: functional, Canis lupus familiaris; settings: route intravenous
Canis familiaris [7] = assay: Amount of time during which increase in administered orally in conscious dogs at 1 mg/kg; format: functional, Canis lupus familiaris; settings: route oral
Rattus norvegicus [8] = assay: Maximum increase in dP/dt when administered intravenously in rats at 1 mg/kg dose.; format: functional; parameters: unit not given here; settings: route intravenous
Canis familiaris [9] = species on record: Canis familiaris; assay: Effective dose required to produce an increase in dP/dt5 by 1500 mmHg/s in dogs; format: functional, Canis lupus familiaris
Canis familiaris [10] = assay: Maximum increase in dP/dt60 when administered orally in dogs at dose 1 mg/kg; format: functional, Canis lupus familiaris; settings: route oral
Canis familiaris [11] = assay: Maximum increase in dP/dt when administered intravenously in dogs at 1 mg/kg dose.; format: functional, Canis lupus familiaris; settings: route intravenous
Rattus norvegicus [12] = assay: Maximum increase in dP/dt when administered intravenously in rats at 1 mg/kg.; format: functional; settings: route intravenous
Rattus norvegicus [13] = assay: Maximum increase in dP/dt when administered intravenously in rats at 10 mg/kg dose.; format: functional; parameters: unit not given here; settings: route intravenous
Canis familiaris [14] = assay: Maximum increase in dP/dt when administered intravenously in dogs at 0.3 mg/kg dose.; format: functional, Canis lupus familiaris; settings: route intravenous
Felis catus [15] = assay: Maximum increase in dP/dt when administered intravenously in cats at 0.3 mg/kg.; format: functional; settings: route intravenous
Felis catus [16] = assay: Maximum increase in dP/dt when administered intravenously in cats at 3 mg/kg dose.; format: functional; settings: route intravenous
Rattus norvegicus [17] = assay: Maximum increase in dP/dt when administered intravenously in rats Value in parenthesis denotes dose at which test performed; format: functional
Rattus norvegicus [18] = assay: Maximum increase in dP/dt when administered intravenously in rats at 3 mg/kg.; format: functional; settings: route intravenous
Canis familiaris [19] = assay: Maximum increase in dP/dt when administered intravenously in dogs at 1 mg/kg.; format: functional, Canis lupus familiaris; settings: route intravenous
Felis catus [20] = assay: Maximum increase in dP/dt when administered intravenously in cats at 0.03 mg/kg dose.; format: functional; settings: route intravenous
Canis familiaris [21] = assay: Maximum increase in dP/dt when administered intravenously in dogs at 0.1 mg/kg.; format: functional, Canis lupus familiaris; settings: route intravenous
Canis familiaris [22] = assay: Maximum increase in dP/dt60 when administered orally in dogs at dose 0.5 mg/kg; format: functional, Canis lupus familiaris; settings: route oral
Canis familiaris [23] = assay: Time after which maximum increase in contractility was observed when administered orally in conscious dogs at 0.5 mg/kg; format: functional, Canis lupus familiaris; settings: route oral
Canis familiaris [24] = assay: Amount of time during which increase in administered orally in conscious dogs at 0.5 mg/kg; format: functional, Canis lupus familiaris; settings: route oral

| Compound | ED1.5 (Felis catus [1]) | ED1.5 (Rattus norvegicus [2]) | Duration (Canis familiaris [7]) | further results |
| --- | --- | --- | --- | --- |
| COc1ccccc1-c1nc2cc3c(cc2[nH]1)C(C)(C)C(=O)N3 | >3 mg/kg | >3 mg/kg | – | – |
| CC1(C)C(=O)Nc2cc3[nH]c(-c4nc[nH]n4)nc3cc21 | 0.02 mg/kg | 0.1 mg/kg | – | Max (Rattus norvegicus [3]): 3.1 mHg s-1 |
| CC1(C)C(=O)Nc2cc3[nH]c(-c4cnsn4)nc3cc21 | 0.004 mg/kg | 0.007 mg/kg | 3 h | Max (Felis catus [4]): 2.6 mmHg s-1; Time (Canis familiaris [5]): 10 min; Max (Canis familiaris [6]): 2.3 mmHg s-1; Max (Rattus norvegicus [8]): 3.5; ED1.5 (Canis familiaris [9]): 0.008 mg/kg; Max (Canis familiaris [10]): 3 mmHg s-1 |
| CC1(C)C(=O)Nc2cc3[nH]c(-c4ccncc4)cc3cc21 | 0.11 mg/kg | 0.16 mg/kg | – | Max (Rattus norvegicus [3]): 3.4 mHg s-1 |
| CC(C)c1nc2cc3c(cc2[nH]1)C(C)(C)C(=O)N3 | 0.09 mg/kg | 0.22 mg/kg | 3 h | Max (Canis familiaris [11]): 1.9 mHg s-1; Time (Canis familiaris [5]): 30 min; ED1.5 (Canis familiaris [9]): 0.46 mg/kg; Max (Canis familiaris [10]): 2.2 mmHg s-1; Max (Rattus norvegicus [12]): 2.3 mmHg s-1 |
| CC1(C)C(=O)Nc2cc3[nH]c(-c4cnc5ccccc5c4)nc3cc21 | – | >3 mg/kg | – | – |
| CC1(C)C(=O)Nc2cc3[nH]c(-c4ccc(-n5ccnc5)cc4)nc3cc21 | 0.25 mg/kg | 1 mg/kg | – | Max (Rattus norvegicus [13]): 2.8 |
| CC1(C)C(=O)Nc2cc3[nH]c(-c4c[nH]cn4)nc3cc21 | – | 0.12 mg/kg | 2 h | Max (Canis familiaris [11]): 2.7 mHg s-1; Time (Canis familiaris [5]): 120 min; ED1.5 (Canis familiaris [9]): 0.07 mg/kg |
| Cc1nc2cc3nc(O)oc3cc2[nH]1 | – | >3 mg/kg | – | – |
| CN(C)c1ccc(-c2nc3cc4c(cc3[nH]2)C(C)(C)C(=O)N4)cc1 | – | >3 mg/kg | – | – |
| Cc1cc2cc3c(cc2[nH]1)NC(=O)C3(C)C | – | >3 mg/kg | – | – |
| CC1(C)C(=O)Nc2cc3[nH]c(S)nc3cc21 | 0.06 mg/kg | 0.55 mg/kg | – | Max (Rattus norvegicus [3]): 3.5 mHg s-1 |
| CC1(C)C(=O)Nc2cc3[nH]c(-c4cccs4)nc3cc21 | 0.07 mg/kg | 0.12 mg/kg | – | – |
| CC1(C)C(=O)Nc2cc3[nH]c(-c4ccco4)nc3cc21 | 0.06 mg/kg | 0.07 mg/kg | 2 h | Max (Canis familiaris [14]): 2.7 mHg/s; Time (Canis familiaris [5]): 40 min; Max (Rattus norvegicus [3]): 2.9 mHg s-1; ED1.5 (Canis familiaris [9]): 0.06 mg/kg |
| Cn1c(-c2ccncc2)nc2cc3c(cc21)NC(=O)C3(C)C | – | >3 mg/kg | – | – |
| CCCc1nc2cc3c(cc2[nH]1)C(C)(C)C(=O)N3 | 0.12 mg/kg | 0.17 mg/kg | – | Max (Rattus norvegicus [8]): 2.5; Max (Felis catus [15]): 2 mmHg s-1 |
| C/C=C/c1nc2cc3c(cc2[nH]1)C(C)(C)C(=O)N3 | – | >3 mg/kg | – | – |
| CC1(C)C(=O)Nc2cc3[nH]c(-c4ccc[nH]4)nc3cc21 | 0.07 mg/kg | 0.45 mg/kg | – | Max (Felis catus [16]): 2.3 mmHg s-1; Max (Canis familiaris [11]): 1.9 mHg s-1; ED1.5 (Canis familiaris [9]): 0.32 mg/kg; Max (Rattus norvegicus [13]): 2.6 |
| CC1(C)C(=O)Nc2cc3[nH]c(-c4ccccc4)nc3cc21 | 0.15 mg/kg | 0.37 mg/kg | 0 h | Max (Felis catus [16]): 3 mmHg s-1; Max (Rattus norvegicus [13]): 4.2 |
| CC1(C)C(=O)Nc2cc3[nH]nnc3cc21 | – | 0.18 mg/kg | – | Max (Rattus norvegicus [17]): 2.6 mmHg s-1 |
| CCn1c(O)nc2cc3[nH]c(-c4ccncc4)nc3cc21 | 0.007 mg/kg | 0.05 mg/kg | 0 h | Max (Felis catus [4]): 3.1 mmHg s-1; Max (Rattus norvegicus [18]): 2.3 mmHg s-1 |
| Cn1c(O)nc2cc3[nH]c(-c4ccncc4)nc3cc21 | 0.01 mg/kg | 0.33 mg/kg | 0 h | Max (Canis familiaris [19]): 2.9 mmHg s-1; ED1.5 (Canis familiaris [9]): 0.12 mg/kg; Max (Rattus norvegicus [13]): 2.6 |
| COc1ccc(-c2nc3cc4c(cc3[nH]2)C(C)(C)C(=O)N4)cc1 | – | >3 mg/kg | – | – |
| CC1(C)C(=O)Nc2cc3[nH]c(-c4ccnnc4)nc3cc21 | 0.01 mg/kg | 0.04 mg/kg | 5 h | Max (Felis catus [20]): 2.4 mmHg s-1; Time (Canis familiaris [5]): 150 min; Max (Canis familiaris [21]): 2.6 mmHg s-1; ED1.5 (Canis familiaris [9]): 0.035 mg/kg; Max (Canis familiaris [10]): 2.3 mmHg s-1 |
| CC1(C)C(=O)Nc2cc3[nH]c(-c4ccc(O)cc4)nc3cc21 | – | >3 mg/kg | – | – |
| CC1(C)C(=O)Nc2cc3[nH]c(-c4cncnc4)nc3cc21 | 0.02 mg/kg | 0.045 mg/kg | – | Max (Rattus norvegicus [3]): 3.1 mHg s-1 |
| CC1(C)C(=O)Nc2cc3[nH]c(O)nc3cc21 | 0.08 mg/kg | 0.13 mg/kg | > 6 h | Max (Canis familiaris [22]): 1.6 mHg s-1; Max (Felis catus [16]): 2.9 mmHg s-1; Max (Canis familiaris [14]): 2 mHg/s; Time (Canis familiaris [23]): 60 min; Time (Canis familiaris [5]): 45 min; Max (Rattus norvegicus [8]): 3; ED1.5 (Canis familiaris [9]): 0.12 mg/kg; Duration (Canis familiaris [24]): 6 h |

Reference: ChEMBL document CHEMBL1124518, “Nonsteroidal cardiotonics. 2. The inotropic activity of linear, tricyclic 5-6-5 fused heterocycles” (1989)
